As usually defined, the solubility is the dissolved amount per volume that the medium holds.

SMILES strings stand for the structures. Like-named read-outs stand apart in the source and are kept apart here.

One data set deals with T1, hGLP1R (Homo sapiens, UniProt P43220).
T1 construct: expressed in transfected cells; host or cells: HEK-293 CRE-luciferase reporter cells
The experiment in a line: hGLP1R CreLuc assay in 0.5% and 100% plasma (HEK-293 CRE-luciferase reporter cells). Type of data set: cell-based. Conditions: HEK-293 reporter cells. In general terms: A reporter such as luciferase makes a cellular process visible.

The target of a further data set is T2, hGIPR (Homo sapiens, UniProt P48546).
T2 construct: expressed in transfected cells; host or cells: CHO CRE-luciferase reporter cells
T2 sequence (P48546 22-466): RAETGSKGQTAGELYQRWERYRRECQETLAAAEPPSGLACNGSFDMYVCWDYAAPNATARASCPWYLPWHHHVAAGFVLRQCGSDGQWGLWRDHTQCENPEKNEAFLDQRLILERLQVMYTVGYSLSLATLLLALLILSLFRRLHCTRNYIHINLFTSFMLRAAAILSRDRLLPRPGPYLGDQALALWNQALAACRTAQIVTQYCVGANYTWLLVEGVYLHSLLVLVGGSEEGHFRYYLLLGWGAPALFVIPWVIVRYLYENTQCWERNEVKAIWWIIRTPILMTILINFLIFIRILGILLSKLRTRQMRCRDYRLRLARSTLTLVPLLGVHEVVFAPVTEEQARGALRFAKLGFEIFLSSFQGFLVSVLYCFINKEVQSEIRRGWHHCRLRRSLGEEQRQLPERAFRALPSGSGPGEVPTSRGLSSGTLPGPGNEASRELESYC
Briefly: hGIPR CreLuc assay in 0.5% and 100% plasma (CHO CRE-luciferase reporter cells). It counts as cell-based.

The nature of data set [1]: Solubility in 0.1 M phosphate buffer at pH 7. It counts as physicochemical. Conditions: 0.1 M phosphate buffer at pH 7, 10 mg/mL final peptide concentration, shaking 2 hours at room temperature, peptides as TFA-salts; measured sample pH 6.5-7.0.
A further data set has as its target T3, hNPY2R (Homo sapiens, UniProt P49146).
T3 construct: expressed in transfected cells; host or cells: HEK-293 CRE-luciferase reporter cells
T3 sequence (P49146 1-381): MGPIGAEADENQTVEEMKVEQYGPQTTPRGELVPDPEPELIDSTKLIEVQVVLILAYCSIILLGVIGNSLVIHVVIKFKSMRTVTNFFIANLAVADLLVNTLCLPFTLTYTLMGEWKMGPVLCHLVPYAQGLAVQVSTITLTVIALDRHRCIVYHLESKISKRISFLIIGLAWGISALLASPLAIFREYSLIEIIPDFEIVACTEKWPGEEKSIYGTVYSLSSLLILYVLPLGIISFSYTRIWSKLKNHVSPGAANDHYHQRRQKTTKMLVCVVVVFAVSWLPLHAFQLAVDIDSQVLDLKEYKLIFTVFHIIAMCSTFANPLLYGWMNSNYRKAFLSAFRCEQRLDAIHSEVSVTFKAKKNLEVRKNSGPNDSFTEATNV
Briefly: hNPY2R CreLuc assay in 0.5% and 100% plasma (HEK-293 CRE-luciferase reporter cells). Type of data set: cell-based. Conditions: HEK-293 reporter cells.

The mark [2] stands for this setting: 0.5% human plasma, read-out: hGLP1R 0.5% hP.
Where [3] appears, read: 0.5% human plasma, read-out: hGIPR 0.5% hP.
[4] abbreviates: 100% human plasma, read-out: hGIPR 100% hP.
[5] abbreviates: 100% human plasma, read-out: hNPY2R 100% hP.
Where [6] appears, read: 100% human plasma, read-out: hGLP1R 100% hP.
The mark [7] stands for this setting: 0.5% human plasma, read-out: hNPY2R 0.5% hP.

T1 sequence (P43220 24-463): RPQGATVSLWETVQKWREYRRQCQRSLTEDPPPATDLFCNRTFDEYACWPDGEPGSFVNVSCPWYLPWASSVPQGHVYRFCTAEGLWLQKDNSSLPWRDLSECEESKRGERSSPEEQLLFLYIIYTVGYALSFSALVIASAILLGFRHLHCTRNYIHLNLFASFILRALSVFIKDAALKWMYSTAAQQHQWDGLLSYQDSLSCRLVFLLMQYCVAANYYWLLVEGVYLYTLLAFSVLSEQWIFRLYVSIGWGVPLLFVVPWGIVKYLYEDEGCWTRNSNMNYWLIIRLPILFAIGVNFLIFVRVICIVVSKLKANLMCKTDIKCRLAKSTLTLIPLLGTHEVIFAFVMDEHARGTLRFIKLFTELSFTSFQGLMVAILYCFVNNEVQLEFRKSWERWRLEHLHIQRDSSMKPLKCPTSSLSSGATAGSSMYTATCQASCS

Turning to `CC[C@H](C)[C@H](NC(=O)[C@H](CC(C)C)NC(=O)[C@H](Cc1c[nH]cn1)NC(=O)[C@H](CCCNC(=N)N)NC(=O)[C@@H](NC(=O)[C@H](Cc1ccccc1)NC(=O)[C@H](CCC(=O)O)NC(=O)C(C)(C)NC(=O)[C@H](CCC(N)=O)NC(=O)[C@H](C)NC(=O)[C@H](CCC(N)=O)NC(=O)[C@H](CCCCN)NC(=O)[C@H](CCC(=O)O)NC(=O)[C@H](CC(C)C)NC(=O)C(C)(C)NC(=O)[C@@H](NC(=O)[C@H](CO)NC(=O)[C@H](Cc1ccc(O)cc1)NC(=O)[C@H](CC(=O)O)NC(=O)[C@H](CO)NC(=O)[C@@H](NC(=O)[C@H](Cc1ccccc1)NC(=O)[C@@H](NC(=O)CNC(=O)[C@H](CCC(=O)O)NC(=O)C(C)(C)NC(=O)[C@@H](N)Cc1ccc(O)cc1)[C@@H](C)O)[C@@H](C)O)[C@@H](C)CC)C(C)C)C(=O)N[C@@H](CC(N)=O)C(=O)N[C@@H](CCCCNC(=O)COCCOCCNC(=O)CC[C@H](NC(=O)CC[C@H](NC(=O)CC[C@H](NC(=O)CC[C@H](NC(=O)CC[C@H](NC(=O)CCCCCCCCCCCCCCCCC(=O)O)C(=O)O)C(=O)O)C(=O)O)C(=O)O)C(=O)O)C(=O)NC(C)(C)C(=O)N[C@H](C(=O)N[C@@H](CCCNC(=N)N)C(=O)N[C@@H](CCC(N)=O)C(=O)N[C@@H](CCCNC(=N)N)C(=O)N[C@@H](Cc1ccc(O)cc1)C(N)=O)[C@@H](C)O` [Compound 8, Y-Aib-E-G-T-F-T-S-D-Y-S-I-Aib-L-E-K-Q-A-Q-Aib-E-F-V-R-H-L-I-N-K(1,3)-Aib-T-R-Q-R-Y-NH2.C18DA-gGlu-gGlu-gGlu-gGlu-gGlu-OEG(1,2)], the EC50 at hGLP1R (setting [2]) came to 0.3 nM; on hGIPR (setting [3]), 0.3 nM; on hGIPR (setting [4]), 14.2 nM; at hNPY2R (setting [5]) it was 476 nM. Moreover, in data set [1], the solubility at 2 h was found to be 4900 µg/mL.
Consider `CC[C@H](C)[C@H](NC(=O)[C@H](CC(C)C)NC(=O)[C@H](Cc1c[nH]cn1)NC(=O)[C@H](CCCNC(=N)N)NC(=O)[C@@H](NC(=O)[C@H](Cc1ccccc1)NC(=O)[C@H](CCC(=O)O)NC(=O)C(C)(C)NC(=O)[C@H](CCC(N)=O)NC(=O)[C@H](C)NC(=O)[C@H](CCC(N)=O)NC(=O)[C@H](CCCCN)NC(=O)[C@H](CCC(=O)O)NC(=O)[C@H](CC(C)C)NC(=O)C(C)(C)NC(=O)[C@@H](NC(=O)[C@H](CO)NC(=O)[C@H](Cc1ccc(O)cc1)NC(=O)[C@H](CC(=O)O)NC(=O)[C@H](CO)NC(=O)[C@@H](NC(=O)[C@H](Cc1ccccc1)NC(=O)[C@@H](NC(=O)CNC(=O)[C@H](CCC(=O)O)NC(=O)C(C)(C)NC(=O)[C@@H](N)Cc1ccc(O)cc1)[C@@H](C)O)[C@@H](C)O)[C@@H](C)CC)C(C)C)C(=O)N[C@@H](CC(N)=O)C(=O)N[C@@H](CCCCNC(=O)CCCCCNC(=O)CC[C@H](NC(=O)CC[C@H](NC(=O)CC[C@H](NC(=O)CC[C@H](NC(=O)CC[C@H](NC(=O)CCCCCCCCCCCCCCCCC(=O)O)C(=O)O)C(=O)O)C(=O)O)C(=O)O)C(=O)O)C(=O)NC(C)(C)C(=O)N[C@H](C(=O)N[C@@H](CCCNC(=N)N)C(=O)N[C@@H](CCC(N)=O)C(=O)N[C@@H](CCCNC(=N)N)C(=O)N[C@@H](Cc1ccc(O)cc1)C(N)=O)[C@@H](C)O` [Compound 14, Y-Aib-E-G-T-F-T-S-D-Y-S-I-Aib-L-E-K-Q-A-Q-Aib-E-F-V-R-H-L-I-N-K(1,3)-Aib-T-R-Q-R-Y-NH2.C18DA-gGlu-gGlu-gGlu-gGlu-gGlu-AHX(1,2)], for which the EC50 amounted to 0.3 nM at hGLP1R (setting [2]); 0.9 nM on hGLP1R (setting [6]); 0.1 nM on hGIPR (setting [3]); 6.2 nM at hGIPR (setting [4]); 16.8 nM on hNPY2R (setting [7]); 387 nM at hNPY2R (setting [5]). Further, the solubility at 2 h in data set [1] was 4800 µg/mL.
On to `CC[C@H](C)[C@H](NC(=O)[C@H](CC(C)C)NC(=O)[C@H](Cc1c[nH]cn1)NC(=O)[C@H](CCCNC(=N)N)NC(=O)[C@@H](NC(=O)[C@H](Cc1ccccc1)NC(=O)[C@H](C)NC(=O)C(C)(C)NC(=O)[C@H](CCC(N)=O)NC(=O)[C@H](C)NC(=O)[C@H](CCC(N)=O)NC(=O)[C@H](CCCCN)NC(=O)[C@H](CCC(=O)O)NC(=O)[C@H](CC(C)C)NC(=O)C(C)(C)NC(=O)[C@@H](NC(=O)[C@H](CO)NC(=O)[C@H](Cc1ccc(O)cc1)NC(=O)[C@H](CC(=O)O)NC(=O)[C@H](CO)NC(=O)[C@@H](NC(=O)[C@H](Cc1ccccc1)NC(=O)[C@H](C)NC(=O)CNC(=O)[C@H](CCC(=O)O)NC(=O)C(C)(C)NC(=O)[C@@H](N)Cc1ccc(O)cc1)[C@@H](C)O)[C@@H](C)CC)C(C)C)C(=O)N[C@@H](CC(N)=O)C(=O)N[C@@H](CCCCNC(=O)[C@@H](N)CCCCNC(=O)CC[C@H](NC(=O)CC[C@H](NC(=O)CC[C@H](NC(=O)CC[C@H](NC(=O)CC[C@H](NC(=O)CC[C@H](NC(=O)CCCCCCCCCCCCCCCCC(=O)O)C(=O)O)C(=O)O)C(=O)O)C(=O)O)C(=O)O)C(=O)O)C(=O)NC(C)(C)C(=O)N[C@H](C(=O)N[C@@H](CCCNC(=N)N)C(=O)N[C@@H](CCC(N)=O)C(=O)N[C@@H](CCCNC(=N)N)C(=O)N[C@@H](Cc1ccc(O)cc1)C(N)=O)[C@@H](C)O` [Compound 85, Y-Aib-E-G-A-F-T-S-D-Y-S-I-Aib-L-E-K-Q-A-Q-Aib-A-F-V-R-H-L-I-N-K(1,3)-Aib-T-R-Q-R-Y-NH2.C18DA-gGlu-gGlu-gGlu-gGlu-gGlu-gGlu-eLys(1,2)], for which the EC50 at hGLP1R (setting [6]) was found to be 14.5 nM; at hNPY2R (setting [5]), 16.2 nM. In addition, the solubility at 2 h in data set [1] amounted to 9400 µg/mL.
As for `CC[C@H](C)[C@H](NC(=O)[C@H](CC(C)C)NC(=O)[C@H](Cc1c[nH]cn1)NC(=O)[C@H](CCCNC(=N)N)NC(=O)[C@@H](NC(=O)[C@H](Cc1ccccc1)NC(=O)[C@H](C)NC(=O)C(C)(C)NC(=O)[C@H](CCC(=O)O)NC(=O)[C@H](C)NC(=O)[C@H](CCC(N)=O)NC(=O)[C@H](CCCCN)NC(=O)[C@H](CCC(=O)O)NC(=O)[C@H](CC(C)C)NC(=O)C(C)(C)NC(=O)[C@@H](NC(=O)[C@H](CO)NC(=O)[C@H](Cc1ccc(O)cc1)NC(=O)[C@H](CC(=O)O)NC(=O)[C@H](CO)NC(=O)[C@@H](NC(=O)[C@H](Cc1ccccc1)NC(=O)[C@@H](NC(=O)CNC(=O)[C@H](CCC(=O)O)NC(=O)C(C)(C)NC(=O)[C@@H](N)Cc1ccc(O)cc1)[C@@H](C)O)[C@@H](C)O)[C@@H](C)CC)C(C)C)C(=O)N[C@@H](CC(N)=O)C(=O)N[C@@H](CCCCNC(=O)[C@@H](N)CCCCNC(=O)CC[C@H](NC(=O)CC[C@H](NC(=O)CC[C@H](NC(=O)CC[C@H](NC(=O)CC[C@H](NC(=O)CC[C@H](NC(=O)CCCCCCCCCCCCCCCCCCC(=O)O)C(=O)O)C(=O)O)C(=O)O)C(=O)O)C(=O)O)C(=O)O)C(=O)NC(C)(C)C(=O)N[C@H](C(=O)N[C@@H](CCCNC(=N)N)C(=O)N[C@@H](CCC(N)=O)C(=O)N[C@@H](CCCNC(=N)N)C(=O)N[C@@H](Cc1ccc(O)cc1)C(N)=O)[C@@H](C)O` [Compound 104, Y-Aib-E-G-T-F-T-S-D-Y-S-I-Aib-L-E-K-Q-A-E-Aib-A-F-V-R-H-L-I-N-K(1,3)-Aib-T-R-Q-R-Y-NH2.C20DA-gGlu-gGlu-gGlu-gGlu-gGlu-gGlu-eLys(1,2)], the EC50 at hGLP1R (setting [2]) amounted to 2 nM; on hNPY2R (setting [7]), 17.5 nM. Besides, the solubility at 2 h in data set [1] was determined as 9400 µg/mL.

These data come from patent US20250382344A1, “Soluble GLP1/GIP/NPY2 Receptor Triple Agonists” (Boehringer Ingelheim International GmH, priority 2024, published 2025).
